Reference: US20090239951A1, “Crystalline Material” (priority 2006, published 2009)

Legend:
Assay type in all cases: physicochemical
[1] = Stability of the crystal form (general statement)
[2] = Conversion of crystal form on being dissolved or slurried in solvents
[3] = Hygroscopicity versus relative humidity
[4] = Heat stability of crystalline form; details: solid crystalline form
[5] = Stability of Form N-5 slurries in ethanol:water mixtures; details: ethanol:water mixtures (1:1, 1:1.3 and 1:2) at 5, 25 and 30° C. after 1 h, 48 h and 5 days; confirmed by DSC and FTIR
Procedure: The stability of N-5 slurries in ethanol:water mixtures (1:1, 1:1.3 and 1:2) at 5, 25 and 30° C. was determined after 1 h, 48 h and 5 days. […] DSC and FTIR confirmed this.

SMILES	stability of crystal form [1]	form conversion on being dissolved or slurried ([2]; common solvents: alcohols such as methanol, ethanol or isopropanol, nitromethane or nitroethane, alcohol/water mixtures)	becoming hygroscopic at a relative humidity of [3] [%]	heat stable up to [4]	stability when slurried in the presence of an alcohol ([2]; slurried in the presence of an alcohol, after very long periods conversion into Form N-6 may occur)	non-hygroscopic up to a relative humidity of [3] [%]	stability of slurries (transformation to other form) [5]
CC(C)c1cc(Oc2c(Br)cc(NC(=O)CC(=O)O)cc2Br)ccc1O [Form N-1, 3-[[3,5-dibromo-4-[4-hydroxy-3-(1-methylethyl)-phenoxy]-phenyl]-amino]-3-oxopropanoic acid, reference compound]	unstable	converts into Form N-5 and/or Form N-6	50	around 125 °C	–	–	–
CC(C)c1cc(Oc2c(Br)cc(NC(=O)CC(=O)O)cc2Br)ccc1O [Form N-5, 3-[[3,5-dibromo-4-[4-hydroxy-3-(1-methylethyl)-phenoxy]-phenyl]-amino]-3-oxopropanoic acid]	–	–	–	at least 170 °C	stable for a number of days	95	did not transform to any other form
CC(C)c1cc(Oc2c(Br)cc(NC(=O)CC(=O)O)cc2Br)ccc1O [Form N-6, 3-[[3,5-dibromo-4-[4-hydroxy-3-(1-methylethyl)-phenoxy]-phenyl]-amino]-3-oxopropanoic acid]	–	–	–	at least 170 °C	–	95	–
